This passage reports IC90 results from patent US12595255B2, “Heteroaryl-substituted imidazole derivatives” (Hoffmann-La Roche Inc., priority 2021, dated 2026).

Each structure is given as a SMILES string.

One assay relates to Acinetobacter baumannii ATCC17961. The assay can be described thus: Antimicrobial susceptibility testing: 90% growth inhibitory concentration (IC90) determination. To be noted: ATCC17961, 90% growth inhibitory concentration, Iso-Sensitest broth, OD 600 nm over 16 h, 35±2° C., read-out: ATCC 17961 IC90. In kind it is cell-based. As for the experimental part: Assay Procedures Antimicrobial Susceptibility Testing: 90% Growth Inhibitory Concentration (IC90) Determination
The in vitro antimicrobial activity of the compounds was determined according to the following procedure:
The assay used a 10-points Iso-Sensitest broth medium to measure quantitatively the in vitro activity of the compounds against Acinetobacter baumannii ATCC17961.
Stock compounds in DMSO were serially twofold diluted (e.g. range from 50 to 0.097 μM final concentration) in 384 wells microtiter plates and inoculated with 49 μl the bacterial suspension in Iso-Sensitest medium to have a final cell concentration of ˜5×10^5 CFU/ml in a final volume/well of 50 μl/well. Microtiter plates were incubated at 35±2° C.
Bacterial cell growth was determined with the measurement of optical density at λ=600 nm each 20 minutes over a time course of 16 h. Growth inhibition was calculated during the logarithmic growth of the bacterial cells with determination of the concentration inhibiting 50% (IC50) and 90% (IC90) of the growth.
Table 1 provides the 90% growth inhibitory concentrations (IC90) in micromoles per liter of the compounds of present invention obtained against the strain Acinetobacter baumannii ATCC17961.
As for `COc1ccc(-c2cnc(C(=O)Nc3ccc(C(=O)N4CCN(C(=O)[C@@H]5[C@@H]6CNC[C@@H]65)CC4)c(Cl)c3)n2C)c(C(F)(F)F)n1` [Example A18, N-[4-[4-[(1R,5S)-3-azabicyclo[3.1.0]hexane-6-carbonyl]piperazine-1-carbonyl]-3-chloro-phenyl]-5-[6-methoxy-2-(trifluoromethyl)-3-pyridyl]-1-methyl-imidazole-2-carboxamide], the IC90 stood at 0.26 µM. Same read-out and setting: under `CN(C)c1nc(F)c(-c2cnc(C(=O)Nc3ccc(C(=O)N4CCN(C(=O)C5CCNC5)CC4)c(Cl)c3)n2C)cc1F` (stereo not drawn) [Example F4, N-[3-chloro-4-[4-(pyrrolidine-3-carbonyl)piperazine-1-carbonyl]phenyl]-5-[6-(dimethylamino)-2,5-difluoro-3-pyridyl]-1-methyl-imidazole-2-carboxamide] stands 0.74 µM; under `Cc1cc(NC(=O)c2ncc(-c3cc(F)c(N(C)C)nc3F)n2C)ccc1C(=O)N1CCN(C(=O)CN(C)C)CC1` [Example C2, N-[4-[4-[2-(dimethylamino)acetyl]piperazine-1-carbonyl]-3-methyl-phenyl]-5-[6-(dimethylamino)-2,5-difluoro-3-pyridyl]-1-methyl-imidazole-2-carboxamide], 2.5 µM; under `CN(C)c1nc(F)c(-c2cnc(C(=O)Nc3ccc(C(=O)N4CCN(C(=O)CC5CC[N+](C)(C)CC5)CC4)c(Cl)c3)n2C)cc1F` [Example D7, N-[3-chloro-4-[4-[2-(1,1-dimethylpiperidin-1-ium-4-yl)acetyl]piperazine-1-carbonyl]phenyl]-5-[6-(dimethylamino)-2,5-difluoro-3-pyridyl]-1-methyl-imidazole-2-carboxamide], 0.76 µM. Take `CN(C)c1nc(F)c(-c2cnc(C(=O)Nc3ccc(C(=O)NCCCCCCN)c(Cl)c3)n2C)cc1F` [Example B1, N-[4-(6-aminohexylcarbamoyl)-3-chloro-phenyl]-5-[6-(dimethylamino)-2,5-difluoro-3-pyridyl]-1-methyl-imidazole-2-carboxamide]: the IC90 is 1.7 µM.

With `COc1ccc(-c2cnc(C(=O)Nc3ccc(C(=O)N4CCN(C(=O)[C@@H]5C[C@@H](O)CN5)CC4)c(Cl)c3)n2C)c(C(F)(F)F)n1` [Example A17, N-[3-chloro-4-[4-[(2S,4R)-4-hydroxypyrrolidine-2-carbonyl]piperazine-1-carbonyl]phenyl]-5-[6-methoxy-2-(trifluoromethyl)-3-pyridyl]-1-methyl-imidazole-2-carboxamide], the IC90 was 0.36 µM. For the compound `COc1ccc(-c2cnc(C(=O)Nc3ccc(C(=O)N4CCN(C(=O)C[C@@H]5CCNC5)CC4)c(Cl)c3)n2C)c(C(F)(F)F)n1` [Example A14, N-[3-chloro-4-[4-[2-[(3S)-pyrrolidin-3-yl]acetyl]piperazine-1-carbonyl]phenyl]-5-[6-methoxy-2-(trifluoromethyl)-3-pyridyl]-1-methyl-imidazole-2-carboxamide], the concentration for an effect of 90% (IC90) was determined as 0.23 µM.

For the compound `Cn1c(-c2ccc3c(c2)OCCO3)cnc1C(=O)Nc1ccc(C(=O)N2CCN(C(=O)C3CCNCC3)CC2)c(Cl)c1` [Example A20, N-[3-chloro-4-[4-(piperidine-4-carbonyl)piperazine-1-carbonyl]phenyl]-5-(2,3-dihydro-1,4-benzodioxin-6-yl)-1-methyl-imidazole-2-carboxamide], the IC90 was found to be 0.52 µM. `COc1ccc(-c2cnc(C(=O)Nc3ccc(C(=O)N4CCN(C(=O)C5CCNCC5)CC4)c(Cl)c3)n2C)c(OC)n1` [Example A7, N-[3-chloro-4-[4-(piperidine-4-carbonyl)piperazine-1-carbonyl]phenyl]-5-(2,6-dimethoxy-3-pyridyl)-1-methyl-imidazole-2-carboxamide]: the IC90 came to 0.46 µM. With `CNc1nc(F)c(-c2cnc(C(=O)Nc3ccc(C(=O)N4CCN(C(=O)C5CCNCC5)CC4)c(Cl)c3)n2C)cc1F` [Example E1, N-[3-chloro-4-[4-(piperidine-4-carbonyl)piperazine-1-carbonyl]phenyl]-5-[2,5-difluoro-6-(methylamino)-3-pyridyl]-1-methyl-imidazole-2-carboxamide], the IC90 was 1.2 µM. As for `Cn1c(-c2c(Cl)ccc3[nH]ccc23)cnc1C(=O)Nc1ccc(C(=O)N2CCN(C(=O)C[C@@H]3CCNC3)CC2)c(Cl)c1` [Example A11, 5-(5-chloro-1H-indol-4-yl)-N-[3-chloro-4-[4-[2-[(3S)-pyrrolidin-3-yl]acetyl]piperazine-1-carbonyl]phenyl]-1-methyl-imidazole-2-carboxamide], the IC90 turned out to be 0.29 µM. Same read-out and setting: the value for `Cn1c(-c2ccc(Cl)nc2Cl)cnc1C(=O)Nc1ccc(C(=O)N2CCN(C(=O)C3CCNCC3)CC2)c(Cl)c1` [Example A5, N-[3-chloro-4-[4-(piperidine-4-carbonyl)piperazine-1-carbonyl]phenyl]-5-(2,6-dichloro-3-pyridyl)-1-methyl-imidazole-2-carboxamide] was 0.72 µM; that for `Cn1c(-c2cccc3c2ccn3C)cnc1C(=O)Nc1ccc(C(=O)N2CCN(C(=O)C3CCNCC3)CC2)c(Cl)c1` [Example A13, N-[3-chloro-4-[4-(piperidine-4-carbonyl)piperazine-1-carbonyl]phenyl]-1-methyl-5-(1-methylindol-4-yl)imidazole-2-carboxamide] was 1.1 µM; that for `COc1ccc(-c2cnc(C(=O)Nc3ccc(C(=O)N4CCN(C(=O)C5CCNCC5)CC4)c(Cl)c3)n2C)c(C(F)F)n1` [Example A19, N-[3-chloro-4-[4-(piperidine-4-carbonyl)piperazine-1-carbonyl]phenyl]-5-[2-(difluoromethyl)-6-methoxy-3-pyridyl]-1-methyl-imidazole-2-carboxamide] was 0.91 µM.

The same assay, now with this note: ATCC17961, 16 h, read-out: ATCC 17961 IC90 [μM].
On to `CN(C)c1nc(F)c(-c2cnc(C(=O)Nc3ccc(C(=O)NC4CC(NC(=O)C[N+](C)(C)C)C4)c(Cl)c3)n2C)cc1F` (stereo not drawn) [Example D8, [2-[[3-[[2-chloro-4-[[5-[6-(dimethylamino)-2,5-difluoro-3-pyridyl]-1-methyl-imidazole-2-carbonyl]amino]benzoyl]amino]cyclobutyl]amino]-2-oxo-ethyl]-trimethyl-ammonium], for which the IC90 worked out at 2.7 µM. Take `CN(C)c1nc(F)c(-c2cnc(C(=O)Nc3ccc(C(=O)N4CCC(NC(=O)C[N+](C)(C)C)CC4)c(Cl)c3)n2C)cc1F` [Example D9, [2-[[1-[2-chloro-4-[[5-[6-(dimethylamino)-2,5-difluoro-3-pyridyl]-1-methyl-imidazole-2-carbonyl]amino]benzoyl]-4-piperidyl]amino]-2-oxo-ethyl]-trimethyl-ammonium]: the IC90 amounted to 1.6 µM.

Regarding `CN(C)c1nc(F)c(-c2cnc(C(=O)Nc3ccc(C(=O)NC4CCN(C(=O)CCOCC[N+](C)(C)C)CC4)c(Cl)c3)n2C)cc1F` [Example D10, 2-[3-[4-[[2-chloro-4-[[5-[6-(dimethylamino)-2,5-difluoro-3-pyridyl]-1-methyl-imidazole-2-carbonyl]amino]benzoyl]amino]-1-piperidyl]-3-oxo-propoxy]ethyl-trimethyl-ammonium], the 90% effect concentration (IC90) came to 5.6 µM.

As to `Cn1c(-c2c(F)ccc3[nH]ccc23)cnc1C(=O)Nc1ccc(C(=O)N2CCN(C(=O)C[C@@H]3CCNC3)CC2)c(Cl)c1` [Example A1, N-[3-chloro-4-[4-[2-[(3S)-pyrrolidin-3-yl]acetyl]piperazine-1-carbonyl]phenyl]-5-(5-fluoro-1H-indol-4-yl)-1-methyl-imidazole-2-carboxamide], the IC90 came to 0.23 µM.

By IC90 is commonly meant the point of the concentration-response curve where the effect stands at 90%.
